Read-outs that look alike come from different tables or passages of the source.
Tests used:
[1] = test system: cultures enriched in astrocytes; details: added to in vitro cultures; cited from earlier work
CD patients = details: Kast 1998; cited from earlier work
TNF [2] = details: Goebel et al. 2000; cited from earlier work
TNF [3] = details: in vivo LPS-induced model; cited from earlier work
TNF [4] = details: different experimental models; cited from earlier work
[5] = test system: Crohn's patients with fistulas; details: cited from earlier work
[6] = test system: patients with Crohn's disease; details: cited from earlier work
BALB/c mice = test: LPS-induced shock model: survival and signs of endotoxemia after lethal LPS challenge; assay type: in vivo
Description: Male BALB/c mice were injected with 11, 33 or 100 mg/kg of bupropion or with placebo i.p. in saline 1 h before challenge with 600 μg of E. coli LPS (Sigma, St. Louis, Mo.) by i.p. route. Mice were sacrificed 90 min for detection of cytokines in the serum by sandwich ELISA. Values represent the means±SEM of 5 mice per group. * P<0.05.
BALB/c mice were injected intraperitoneally (i.p.) with bupropion or placebo 1 h prior to i.p. injection of LPS (600 ug/mouse).
Male, 6 weeks old BALB/c mice were used in LPS-induced shock experiments. All mice were raised and maintained at the animal facilities at the Goncalo Moniz Research Center-FIOCRUZ, and provided with rodent diet and water ad libitum. Animal numbers in experimental groups were the minimum necessary to permit statistical analysis. All animals were sacrificed under anaesthesia.
In some experiments, groups of mice received i.p. injection of propranolol (1 mg/Kg), SCH23390 (25 μg/kg) and sulpiride (25 mg/Kg) 1 h prior to injection of bupropion. […] To determine serum TNF, IL-1 beta and IL-10 levels, mice were sacrificed 90 min after injection of LPS and bled by axilar vein puncture. Levels of IFN-gamma and nitric oxide were assayed using sera of mice sacrificed 4 h after LPS injection. Platelet and leukocyte cell counts were performed using blood collected with EDTA after 4 h of LPS challenge, using an automated cell counter (ADVIA 60, Bayer).

NC[C@H](O)c1ccc(O)c(O)c1 [noradrenaline]
LPS-stimulated TNF production [1]: significantly blunted

NNCCc1ccccc1 [phenelzine]
CD remission (CD patients): CD remission

NCCc1ccc(O)c(O)c1 [dopamine]
LPS-stimulated TNF production [1]: significantly blunted

CC(C)NCC(O)c1ccc(O)c(O)c1 (stereo not drawn) [isoproteronol]
LPS-stimulated TNF production [1]: significantly blunted | TNF levels (TNF [2]): lower TNF levels

bromocryptine
TNF levels (TNF [3]): lowered TNF levels

COc1ccc(C2CNC(=O)C2)cc1OC1CCCC1 (stereo not drawn) [rolipram]
TNF levels (TNF [4]): lower TNF levels

Remicaid: new drug given early FDA approval for Crohn's patients with fistulas
patients with complete remission ([5]; another study): 48% | patients in whom half of the fistulas closed ([5]; one study): 68%

infliximab: monoclonal antibody acting against TNF-alpha, for moderate to severe Crohn's disease
patients in remission ([6]; four weeks after medication, placebo 4 percent): 33% | share of patients with a 50 percent reduction in fistula drainage ([6]; second study, active fistulas, three doses two weeks apart): two-thirds | share of the patients' fistulas closed ([6]; second study, active fistulas): over half

CCN1CCCC1CNC(=O)c1cc(S(N)(=O)=O)ccc1OC (stereo not drawn) [sulpiride]
effect of antagonist on bupropion mediated survival / protection (BALB/c mice; antagonist i.p. 1 h prior to bupropion (propranolol 1 mg/Kg, SCH23390 25 μg/kg, sulpiride 25 mg/Kg), lethal LPS): did not interfere | protection from lethal LPS challenge by the antagonist alone (BALB/c mice; without bupropion, propranolol 1 mg/Kg, SCH23390 25 μg/kg, sulpiride 25 mg/Kg i.p.): partial protection | TNF levels (TNF [3]): lowered TNF levels

From patent US20060173080A1, “Methods of modulating TNF using bupropion” (The Regents of the University of California, priority 2002, published 2006)
